Results published in ChEMBL document CHEMBL2010711, “Synthesis and comparative evaluation of 4-oxa- and 4-aza-podophyllotoxins as antiproliferative microtubule destabilizing agents” (Bioorg Med Chem Lett, 2012).

Columns and labels:
Assay type in all cases: functional
Paracentrotus lividus = test: Antimitotic activity against Paracentrotus lividus embryo assessed as concentration required to cause 100% cleavage alteration after 2.5 to 6 hrs
CCRF-CEM = test: Cytotoxicity against human CCRF-CEM cells after 48 hrs by trypan blue dye exclusion assay
HT-29 = test: Cytotoxicity against human HT-29 cells after 48 hrs by trypan blue dye exclusion assay; settings: HT-29, 48 h
HCT-116 = test: Cytotoxicity against human HCT116 cells after 48 hrs by trypan blue dye exclusion assay; settings: HCT-116, 48 h
SF-295 = test: Cytotoxicity against human SF295 cells after 48 hrs by trypan blue dye exclusion assay; settings: SF-295, 48 h
SK-MEL-28 = test: Cytotoxicity against human SK-MEL-28 cells after 48 hrs by trypan blue dye exclusion assay; settings: SK-MEL-28, 48 h
UACC-257 = test: Cytotoxicity against human UACC257 cells after 48 hrs by trypan blue dye exclusion assay; settings: UACC-257, 48 h
BT-549 = test: Cytotoxicity against human BT549 cells after 48 hrs by trypan blue dye exclusion assay; settings: BT-549, 48 h
KM12 = test: Cytotoxicity against human KM12 cells after 48 hrs by trypan blue dye exclusion assay; settings: KM12, 48 h
SNB-75 = test: Cytotoxicity against human SNB75 cells after 48 hrs by trypan blue dye exclusion assay; settings: SNB-75, 48 h
IGROV-1 = test: Cytotoxicity against human IGROV1 cells after 48 hrs by trypan blue dye exclusion assay; settings: IGROV-1, 48 h
DU-145 = test: Cytotoxicity against human DU145 cells after 48 hrs by trypan blue dye exclusion assay; settings: DU-145, 48 h
HOP-62 = test: Cytotoxicity against human HOP62 cells after 48 hrs by trypan blue dye exclusion assay; settings: HOP-62, 48 h
HL-60(TB) = test: Cytotoxicity against human HL-60(TB) cells after 48 hrs by trypan blue dye exclusion assay; settings: HL-60, 48 h
ACHN = test: Cytotoxicity against human ACHN cells after 48 hrs by trypan blue dye exclusion assay

Compound `COc1ccc2c(c1)OC1=C(C(=O)OC1)C2c1cc(OC)c2c(c1)OCO2` (stereo not given) has an EC (Paracentrotus lividus) of 2 nM, a GI50 (CCRF-CEM) of 37 nM and a GI50 (HT-29) of 33.1 nM. It also gave a GI50 (HCT-116) of 37.4 nM, a GI50 (SF-295) of 20.2 nM and a GI50 (SK-MEL-28) of 34.2 nM. The GI50 (UACC-257) was 21.3 µM, the GI50 (BT-549) was 107 nM and the GI50 (KM12) was 29.6 nM. It also gave a GI50 (SNB-75) of 13.9 nM, a GI50 (IGROV-1) of 62.4 nM and a GI50 (DU-145) of 35.2 nM. For the same compound, the GI50 (HOP-62) was 34.9 nM, the GI50 (HL-60(TB)) was 30.3 nM and the GI50 (ACHN) was 267 nM.
